The source of these data is paper PMC8041284, “Tunable Methacrylamides for Covalent Ligand Directed Release Chemistry” (Journal of the American Chemical Society, 2021).

Sequence of BTK (Q06187 402-655 limits assumed): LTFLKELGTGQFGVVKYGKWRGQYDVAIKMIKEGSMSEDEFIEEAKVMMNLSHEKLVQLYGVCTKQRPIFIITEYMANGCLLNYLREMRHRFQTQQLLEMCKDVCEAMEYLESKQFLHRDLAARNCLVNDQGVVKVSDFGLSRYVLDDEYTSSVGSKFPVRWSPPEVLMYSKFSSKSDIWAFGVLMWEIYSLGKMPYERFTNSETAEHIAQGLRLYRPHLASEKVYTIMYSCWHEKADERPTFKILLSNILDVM

One assay addresses BTK (Homo sapiens, UniProt Q06187). As to the kind of experiment: biochemical. To be noted: read-out: BTK inhibition (%).
For orientation: inhibition means the change of the read-out against control, counted positive when it falls. Take `Cc1ccccc1-n1c(CF)nc2ccc(N)cc2c1=O` [PCM-0214908]: the inhibition at 10 µM was 2.3%.

Still in this assay, the particulars now being: read-out: BTK inhibition (%), 0.75 uM BTK, […] probe 3l, 15 min preincubation.
For the molecule `CCCC[C@H](CC)COC(=O)/C=C/c1ccc(OC)cc1` [PCM-0090405], the inhibition at 10 µM was found to be 6.2%.
Still for that read-out and setting: then `O=C(O)c1cc(N=Nc2ccc(S(=O)(=O)Nc3ccccn3)cc2)ccc1O` [PCM-0214740], with 48.3%.
On the same count and under the same terms, then `CCNC(=O)CCC/C=C\C[C@@H]1[C@@H](/C=C/[C@@H](O)CCc2ccccc2)[C@H](O)C[C@@H]1O` [PCM-0095085], with 15.2%; and `C=C(C)[C@@H]1CC[C@]2(C(=O)O[C@@H]3O[C@H](CO[C@@H]4O[C@H](CO)[C@@H](O[C@@H]5O[C@@H](C)[C@H](O)[C@@H](O)[C@H]5O)[C@H](O)[C@H]4O)[C@@H](O)[C@H](O)[C@H]3O)CC[C@]3(C)[C@H](CC[C@@H]4[C@@]5(C)CC[C@H](O[C@@H]6OC[C@H](O)[C@H](O)[C@H]6O[C@@H]6O[C@@H](C)[C@H](O)[C@@H](O)[C@H]6O)[C@@](C)(CO)[C@@H]5CC[C@]43C)[C@@H]12` [PCM-0216377], with -42.6%; and `Cn1cc(C2=C(c3ccc(Cl)cc3Cl)C(=O)NC2=O)c2ccccc21` [PCM-0064915], with 3.4%.
`NCC1OC(OC2C(N)CC(N)C(OC3OC(CO)C(O)C(N)C3O)C2O)C(N)CC1O` (stereo not drawn) [PCM-0086125]: the inhibition at 10 µM worked out at 21.3%.
Take `Cn1c(=O)c(Oc2ccc(F)cc2F)cc2cnc(NC(CCO)CCO)nc21` [PCM-0215718]: the inhibition at 10 µM was -30.3%.
Consider `C=C[C@H]1CN2CC[C@@]3(C(=O)Nc4ccccc43)[C@@H]2C[C@@H]1/C(=C\OC)C(=O)OC` [PCM-0216491], for which the inhibition at 10 µM was -7.7%.
For the molecule `C=C[C@]1(C)C[C@@H](OC(=O)CSC2C[C@H]3CC[C@@H](C2)N3C)[C@]2(C)[C@H](C)CC[C@]3(CCC(=O)[C@H]32)[C@@H](C)[C@@H]1O` (stereo partly drawn) [PCM-0095603], the inhibition at 10 µM amounted to 3.9%.
In the case of `C#C[C@]1(O)CC[C@H]2[C@@H]3CCC4=CC(=O)CC[C@@H]4[C@H]3CC[C@@]21C` [PCM-0085792], the inhibition at 10 µM came to 3.1%.
The same measure, in the same setting: then `O=C(Nc1nc2cccc(-c3ccc(CN4CCS(=O)(=O)CC4)cc3)n2n1)C1CC1` [PCM-0215361], with 31.7%.
Consider `NC(Cc1c[nH]c2ccc(O)cc12)C(=O)O` (stereo not drawn) [PCM-0094825], for which the inhibition at 10 µM is -2.3%.
In the case of `CCCCN(Cc1ccc(C(=O)NO)cc1)C(=O)Nc1ccccc1` [PCM-0215294], the inhibition at 10 µM turned out to be 23.9%.
On the same count and under the same terms, then `CCCc1cc(C)[nH]c(=O)c1CNC(=O)c1cc(-c2ccc(N3CCN(C(C)C)CC3)nc2)cc2c1cnn2C(C)C` [PCM-0095761], with -29.3%.
Consider `CCOc1ccc(Cc2cc([C@@H]3O[C@H](SC)[C@@H](O)[C@H](O)[C@H]3O)ccc2Cl)cc1` [PCM-0215557], for which the inhibition at 10 µM is -17.8%.
On the same count and under the same terms, then `O=C(O)CCc1ccc(NCc2cccc(Oc3ccccc3)c2)cc1` [PCM-0065313], with -41.4%; and `O=C(O)/C(Cc1ccccc1[N+](=O)[O-])=N/Nc1nc(-c2ccc(Cl)c(Cl)c2)cs1` [PCM-0215282], with 54.8%.
Same read-out and setting: then `CSCC1CN(/N=C/c2ccc([N+](=O)[O-])o2)C(=O)O1` (stereo not drawn) [PCM-0216228], with 20.7%; and `CO/N=C(\C(=O)N[C@@H]1C(=O)N2C(C(=O)O)=C(C[N+]3(C)CCCC3)CS[C@H]12)c1csc(N)n1` [PCM-0214905], with -10.1%.
On the same count and under the same terms, then `Cc1nnsc1C(=O)Nc1ccc(-n2nc(C(F)(F)F)cc2C(F)(F)F)cc1` [PCM-0215731], with 22.4%; and `O=C1Nc2ccc(I)cc2/C1=C/c1cc(Br)c(O)c(Br)c1` [PCM-0095540], with 52.4%; and `NC[C@@H]1O[C@H](O[C@H]2[C@@H](O)[C@H](O[C@@H]3[C@@H](O)[C@H](N)C[C@H](N)[C@H]3O[C@H]3O[C@H](CN)[C@@H](O)[C@H](O)[C@H]3N)O[C@@H]2CO)[C@H](N)[C@@H](O)[C@@H]1O` [PCM-0095358], with 4.3%.
As for `COc1cc(/C=C/C(=O)O[C@H]2[C@H](O)[C@@H](CO)O[C@@]2(CO)O[C@H]2O[C@H](CO)[C@@H](O)[C@H](O)[C@H]2O)ccc1O` [PCM-0216331], the inhibition at 10 µM was -3.1%.
Still for that read-out and setting: then `Cc1c(C(=O)N2CCOc3ccc(-c4ccc(N)nc4)cc3C2)ccc(S(C)(=O)=O)c1F` [PCM-0215244], with 1.4%.
On the same count and under the same terms, then `CC(C)=CCC[C@](C)(O[C@@H]1O[C@H](CO[C@@H]2O[C@H](CO)[C@@H](O)[C@H](O)[C@H]2O)[C@@H](O)[C@H](O)[C@H]1O)[C@H]1CC[C@]2(C)[C@@H]1[C@H](O)C[C@@H]1[C@@]3(C)CC[C@H](O[C@@H]4O[C@H](CO)[C@@H](O)[C@H](O)[C@H]4O)C(C)(C)[C@@H]3CC[C@]12C` [PCM-0216463], with 4.6%; and `CC[C@H](NC(=O)[C@H](C)NC)C(=O)N1C[C@@H](O)C[C@H]1Cc1c(-c2[nH]c3cc(F)ccc3c2C[C@@H]2C[C@H](O)CN2C(=O)[C@H](CC)NC(=O)[C@H](C)NC)[nH]c2cc(F)ccc12` [PCM-0214572], with 5.4%; and `COC(=O)[C@@H]1[C@H]2C[C@H]3c4[nH]c5ccccc5c4CCN3C[C@@H]2CC[C@@H]1O` [PCM-0214658], with -21.8%.
Take `COCCCC/C(=N\OCCN)c1ccc(C(F)(F)F)cc1` [PCM-0065088]: the inhibition at 10 µM is -8.6%.
Same read-out and setting: then `C/C(=N\NC(=S)N1CCC1)c1ccccn1` [PCM-0095797], with -13.9%.
Regarding `CC1(C)[C@@H](OC(=O)CCC(=O)O)CC[C@]2(C)[C@H]3C(=O)C=C4[C@@H]5C[C@@](C)(C(=O)O)CC[C@]5(C)CC[C@@]4(C)[C@]3(C)CC[C@@H]12` [PCM-0215252], the inhibition at 10 µM amounted to 26.5%.
On the same count and under the same terms, then `CC(C(=O)Nc1cccc(N=Cc2c(O)ccc3ccccc23)c1)c1ccccc1` (stereo not drawn) [PCM-0215794], with 21.6%; and `CN(Cc1ccc(C(C)(C)C)cc1)Cc1cccc2ccccc12` [PCM-0086068], with 62.3%; and `CCn1cc(-c2cccc(C(F)(F)F)c2)c2sc(C(N)=NC3CCS(=O)(=O)CC3)cc2c1=O` [PCM-0215627], with 2.3%.
Regarding `CCCS(=O)(=O)Nc1ccc(F)c(C(=O)c2c[nH]c3ncc(-c4ccc(Cl)cc4)cc23)c1F` [PCM-0095039], the inhibition at 10 µM worked out at 24.8%.
Turning to `CC1=NN(c2ccccc2)C(=O)C1` [PCM-0006147], the inhibition at 10 µM worked out at 6.2%.
In the case of `CC1(C)CC(=O)c2c(C(F)(F)F)nn(-c3ccc(C(N)=O)c(NC4CCC(OC(=O)CN)CC4)c3)c2C1` (stereo not drawn) [PCM-0214703], the inhibition at 10 µM is 1.6%.
With `CC(C)=CCC[C@](C)(O[C@@H]1O[C@H](CO[C@@H]2OC[C@@H](O)[C@H](O)[C@H]2O)[C@@H](O)[C@H](O)[C@H]1O)[C@H]1CC[C@]2(C)[C@@H]1[C@H](O)C[C@@H]1[C@@]3(C)CC[C@H](O[C@@H]4O[C@H](CO)[C@@H](O)[C@H](O)[C@H]4O)C(C)(C)[C@@H]3CC[C@]12C` [PCM-0214676], the inhibition at 10 µM was determined as 35.8%.
`CC(C)[C@H](C(=O)Nc1ccc(C(=O)NO)cc1)c1ccccc1` [PCM-0095283]: the inhibition at 10 µM is 17.1%.
Still for that read-out and setting: then `CC(C)c1cc(C(C)C)c(CC(=O)NS(=O)(=O)Oc2c(C(C)C)cccc2C(C)C)c(C(C)C)c1` [PCM-0095235], with 56%; and `O=C(/C=C/C=C/c1ccc2c(c1)OCO2)N1CCCCC1` [PCM-0006645], with -14%.
The same measure, in the same setting: then `N[C@@H](CSCCCO)C(=O)O` [PCM-0095309], with 17.9%; and `CCn1cc(NC(=S)Nc2cc(Cl)ccc2OC)c(C(N)=O)n1` [PCM-0215323], with 0%; and `COc1c(C)c(C(=O)c2ccc(N)c(C(=O)O)c2)n2ccccc12` [PCM-0215263], with 17.2%.
For the molecule `CC[C@H]1OC(=O)C[C@@H](OC(C)=O)[C@H](C)[C@@H](O[C@@H]2O[C@H](C)[C@@H](O[C@H]3C[C@@](C)(O)[C@@H](OC(=O)CC(C)C)[C@H](C)O3)[C@H](N(C)C)[C@H]2O)[C@@H](CC=O)C[C@@H](C)C(=O)/C=C/C(C)=C/[C@@H]1CO[C@@H]1O[C@H](C)[C@@H](O)[C@@H](OC)[C@H]1OC` [PCM-0216006], the inhibition at 10 µM was -20.1%.
Consider `CNC(=O)c1ccc(N2C(=S)N(c3cnc(C#N)c(C(F)(F)F)c3)C(=O)C23CCC3)cc1F` [PCM-0095458], for which the inhibition at 10 µM was -3.1%.
The same measure, in the same setting: then `O=C1CCc2cc(OCCCCc3nnnn3C3CCCCC3)ccc2N1` [PCM-0064629], with -19.5%; and `CN(C)C(=N)N=C(N)N` [PCM-0085761], with 21.8%.
The same measure, in the same setting: then `CN(C)[C@@H]1C(=O)C(C(N)=O)=C(O)[C@@]2(O)C(=O)C3=C(O)c4c(O)ccc(Cl)c4[C@@](C)(O)[C@H]3C[C@@H]12` [PCM-0215204], with 10.2%; and `CC(=O)NC[C@H]1CN(c2ccc(N3CCOCC3)c(F)c2)C(=O)O1` [PCM-0064450], with -23.3%.
With `COc1ncc(-c2ccc3nccc(-c4ccnnc4)c3c2)cc1NS(=O)(=O)c1ccc(F)cc1F` [PCM-0095528], the inhibition at 10 µM is -18.6%.
On to `O=c1cc(-c2ccc(O[C@@H]3O[C@H](CO)[C@@H](O)[C@H](O)[C@H]3O)cc2)oc2cc(O)c([C@@H]3O[C@H](CO)[C@@H](O)[C@H](O)[C@H]3O[C@@H]3OC[C@H](O)[C@H](O)[C@H]3O)c(O)c12` [PCM-0216482], for which the inhibition at 10 µM was -22.4%.
In the case of `Cc1cn([C@H]2C=C[C@@H](CO)O2)c(=O)[nH]c1=O` [PCM-0065071], the inhibition at 10 µM worked out at 2.3%.
Same read-out and setting: then `CC(C)(Sc1cc(C(C)(C)C)c(O)c(C(C)(C)C)c1)Sc1cc(C(C)(C)C)c(O)c(C(C)(C)C)c1` [PCM-0086112], with 0.8%; and `COc1c(C)cnc(Cn2cnc3c(Cl)nc(N)nc32)c1C` [PCM-0095047], with -10.3%.
With `CCOc1nc2cccc(C(=O)O)c2n1Cc1ccc(-c2ccccc2-c2nn[nH]n2)cc1` [PCM-0086226], the inhibition at 10 µM amounted to 24.1%.
For the molecule `CC(=O)O[C@H]1C[C@H](O[C@H]2[C@@H](O)C[C@H](O[C@H]3[C@@H](O)C[C@H](O[C@H]4CC[C@@]5(C)[C@H](CC[C@@H]6[C@@H]5C[C@@H](O)[C@]5(C)[C@@H](C7=CC(=O)OC7)CC[C@]65O)C4)O[C@@H]3C)O[C@@H]2C)O[C@H](C)[C@H]1O[C@@H]1O[C@H](CO)[C@@H](O)[C@H](O)[C@H]1O` [PCM-0216197], the inhibition at 10 µM is -4.6%.
